# Measured values from US6579541B2, “Oxidative fluorinator compounds as antimicrobials” (priority 2000, dated 2003).
# What was measured:
# [1] = tested on: bacterial colonies; assay: Industrial cooling tower water, standard immersion test kit; conditions: about 1 ppm CoF3 with about 10 ppm KPS, about 1,000 gallons of water, after 24 hours
# Source text: An industrial cooling tower containing about 1,000 gallons of water tested positive for a high bacterial colony count using a standard immersion test kit.
# [2] = tested on: coliform; assay: AOAC culture test of contaminated water, coliform counts; format: cell-based; conditions: about 2 PPM XeF2 with about 20 PPM KPS, pH about 7, 37.4 cfu/mL
# Description: (§1) These and other aspects of the present invention may be more fully understood with reference to the following examples, which are merely illustrative of the preferred embodiments of the present invention, and are not to be construed as limiting the invention, the scope of which is defined by the appended claims. Unless otherwise indicated, antimicrobial evaluations of the various fluorinator compounds tested were performed versus control samples in cultures in accordance with the protocol as set forth in AOAC (15th) 1990:965:13 at colony densities indicated in the examples.
# Contaminated water was prepared and measured to have AOAC coliform counts averaging 37.4 colony forming units per milliliter (cfu/mL). The water was treated by first adding crystal potassium monopersulfate (KPS) stabilizer, commercially available from E.I. DuPont de Nemours & Co. Corp. as OXONE®, and xenon difluoride (XeF2). The concentration in solution of the KPS and XeF2 was about 20 PPM and about 2 PPM respectively, and the pH of the treated solution was about 7.
# [3] = tested on: Staph Aureus (Methicillin resistance); assay: Hand soap base culture test; format: cell-based; conditions: about 5 ppm XeF2 in hand soap base, about 320,000 cfu/mL, 30 seconds exposure
# Description: as §1
# (§2) A hand soap base was prepared comprising an aqueous mixture of coconut fatty acid amide and sodium lauryl sulfate surfactants. XeF2 was incorporated into the hand soap base at a level of about 5 ppm and four separate cultures containing various microbes at a level of about 320,000 cfu/mL were evaluated.
# [4] = tested on: Salmonella ATC 14; assay: Hand soap base culture test; format: cell-based; conditions: about 5 ppm XeF2 in hand soap base, about 320,000 cfu/mL, 30 seconds exposure
# Description: as §1, §2
# [5] = tested on: Enterococcus Faecalis (Vancomycin resistance); assay: Hand soap base culture test; format: cell-based; conditions: about 5 ppm XeF2 in hand soap base, about 320,000 cfu/mL, 30 seconds exposure
# Description: as §1, §2
# [6] = tested on: E. Coli ATCC 81377; assay: Hand soap base culture test; format: cell-based; conditions: about 5 ppm XeF2 in hand soap base, about 320,000 cfu/mL, 30 seconds exposure
# Description: as §1, §2
# [7] = tested on: salmonella; assay: AOAC culture test of aqueous solutions with salmonella contamination; format: cell-based; conditions: ten minutes exposure
# Description: Unless otherwise indicated, antimicrobial evaluations of the various fluorinator compounds tested were performed versus control samples in cultures in accordance with the protocol as set forth in AOAC (15th) 1990:965:13 at colony densities indicated in the examples.
# Aqueous solutions were prepared having a salmonella contamination at a cell density of about 500,000 cfu/mL. Two solutions of XeF2 were prepared: one as a 1% solution in 85% phosphoric acid stabilizer, and a second solution containing no stabilizer. The materials were cultured versus controls at concentrations of about 2 ppm and about 4 ppm XeF2 and at a pH of about 9.
Compound,immersion kit test result on cooling tower water [1],coliform inhibited ([2]; 5 minutes exposure),coliform inhibited ([2]; 10 minutes exposure),Inhibition (%) [3] [%],Inhibition (%) [4] [%],Inhibition (%) [5] [%],Inhibition (%) [6] [%],"inhibition ([7]; about 2 ppm XeF2, pH about 9, about 500,000 cfu/mL)","inhibition ([7]; about 4 ppm XeF2, pH about 9, about 500,000 cfu/mL)"
"[F][Co]([F])[F] [CoF3, cobalt trifluoride]",complete destruction of bacterial colonies,,,,,,,,
"F[Xe]F [XeF2, xenon difluoride]",,about 73%,about 77%,99.5,99.9,99.9,99.9,about 13.2%,about 96.4%
